# Conditions: buffer; pH 7.4; 200.0 µM
row,Compound,solubility kinetic [mg/mL]
1,CC(=O)c1cccc(NC(=S)NC2CCCCCCC2)c1,0.006
2,Cc1ccc(Nc2nc(C)nc3c2oc2ccccc23)cc1,0.0003
3,O=C(CN1C(=O)NC2(CCCC2)C1=O)NCCc1ccc(F)cc1,0.0444
4,COc1ccc(N2CCN(CC(=O)NCc3ccccc3)CC2)cc1,> 0.0509
5,CC(=O)c1cccc(NC(=O)NCCc2ccc(Cl)cc2)c1,0.0016
6,COc1ccc(NC(=O)CN(C)CC(=O)N(CC(C)C)c2c(N)n(CC(C)C)c(=O)[nH]c2=O)cc1,> 0.0733
7,C=CCOc1nc2sc(C)c(C)c2c(=O)n1-c1ccccc1,0.0461
8,Clc1ccc(Cn2ccnc2)cn1,0.0242
9,Cc1onc(-c2c(F)cccc2Cl)c1C(=O)c1ccccc1O,0.0026
10,Cc1cccc(N2C(=O)C3CCCN3C2=S)c1 (centres undefined),0.0361
11,NS(=O)(=O)c1ccc(CCN2C(=O)CCC2=O)cc1,> 0.0423
12,COc1ccc(NC(=O)CSC2=NCCN2)cc1.Cl,> 0.0453
13,C=Cn1ccnc1P(O)(=S)c1nc(C)c(CCOC(C)=O)s1 (centres undefined),0.0431
14,CCC(C)c1ccc(NC(=S)NCc2ccccn2)cc1 (centres undefined),0.0385
15,Cc1cc(C)nc(NC(=S)NC(=O)c2ccccc2F)n1,0.0081
16,O=C(O)c1cccc(N=C2NC(=O)C(CO)(CO)S2)c1,> 0.0444
17,CCCOc1ccc(C(=O)NCC(C)(C)N2CCOCC2)cc1,> 0.0481
18,CN1C2CCC1CC(NC(=O)c1cccc(C(F)(F)F)c1)C2 (centres undefined),> 0.0469
19,CC(C)N(CC(N)=O)c1ncnc2sc(-c3ccccc3)cc12,0.0104
20,C/C(=N\NC1=NCCN1)c1ccc(N)c([N+](=O)[O-])c1,> 0.0393
21,O=C(NCCCN1CCOCC1)c1cc2ccccc2cc1O,> 0.0472
22,CC(=O)c1c(C)[nH]c(C(=O)Nc2cccc(C#N)c2)c1C,0.0108

row,Compound,solubility kinetic [mg/mL]
1,Nc1c([N+](=O)[O-])c(=O)oc2ccccc12,> 0.0309
2,C=CCOc1ccc(C2NC(=S)NC3=C2CCc2ccccc23)cc1 (centres undefined),0.0112
3,COC(=O)c1cc(-c2cccc([N+](=O)[O-])c2)c2c(=O)[nH]c(=O)n(C)c2n1,0.0011
4,COc1ccc(CCNS(=O)(=O)c2ccc(Cl)cc2)cc1OC,> 0.0534
5,COCCCNc1ccc([N+](=O)[O-])cc1C(=O)Nc1cccc(C)n1,0.0029
6,CC1=CC(C)(C)Nc2ccc(OC(=O)CN3C(=O)c4cccc5cccc(c45)C3=O)cc21,0.0563
7,CC(=O)c1ccc(NC(=O)NCc2ccc(F)cc2)cc1,0.0078
8,NS(=O)(=O)c1ccc(CCNC(=O)c2ccc3nccnc3c2)cc1,> 0.0535
9,Cc1ccc(CN2C(=O)CSC2c2cccnc2)cc1 (centres undefined),> 0.0427
10,Cc1ccc(OCCn2c(=S)[nH]c3ccccc32)c(C(C)C)c1,< 0.0003
11,CC(C)=Cc1oc2ccc([N+](=O)[O-])cc2c1N1CCOCC1,< 0.0003
12,COc1ccc(C(=O)NCc2ccccn2)cc1[N+](=O)[O-],> 0.0431
13,COc1ccc(CN2CC(C(=O)NCCC(C)C)CC2=O)cc1 (centres undefined),> 0.0478
14,COc1ccc(NC(=O)c2ccc3nc(C)sc3c2)cc1,0.0154
15,CCC(C)[C@H](NC(=O)N1CCCCCC1)C(=O)OC (some centres undefined),0.0012
16,Cc1ccc(SCC(=O)N2CCN(S(=O)(=O)c3cccs3)CC2)cc1,0.0184
17,CC1CN(C(=O)c2cccs2)CC(C)O1 (centres undefined),0.0324
18,COc1cc(OC)nc(Oc2cc(C=O)ccc2OC)n1,> 0.0435
19,CCCCN1C(C)=CC(=C2C(=O)c3ccccc3C2=O)C=C1C,< 0.0007
20,CCN(CC)S(=O)(=O)c1ccc(OC(C)C)c(N)c1,> 0.043
21,COC(=O)/C(=C\C(=O)c1ccc([N+](=O)[O-])cc1)Nc1ccc(OC)cc1,< 0.0004
22,CCc1ccc(N2CN(CCc3ccccc3)CNC2=S)cc1,0.0016

# Next, values leading:
row,solubility kinetic [mg/mL],Compound
1,0.0008,O=C(Nc1ccccc1N1CCOCC1)c1ccc2ccccc2c1
2,> 0.0414,CC(=O)N/C(=C\c1ccccc1)C(=O)NC(C)C(=O)O (centres undefined)
3,0.0074,Cc1ccc(-c2nc(-c3ccccn3)no2)cc1[N+](=O)[O-]
4,> 0.0558,Cc1ccc(-c2csc(NC(=O)c3ccccc3Cl)c2C(=O)O)cc1
5,> 0.0824,COc1ccc(NC(=O)COC(=O)C23CC4CC(CC(NC(C)=O)(C4)C2)C3)cc1S(=O)(=O)N1CCOCC1
6,0.0077,Cc1cc(Br)c(NC(=O)COC(=O)CC2CC3CCC2C3)c(Br)c1 (centres undefined)
7,> 0.0342,COc1ccc(CN(C)C(=O)CCl)cc1
8,0.039,O=C(C1CC(=O)N(c2ccc(F)cc2)C1)N1CCCCC1 (centres undefined)
9,0.0024,O=C(Cc1ccc([N+](=O)[O-])cc1)Nc1ccc(Br)cn1
10,> 0.0405,Cc1cccnc1NC(=O)c1ccc2c(c1)OCCO2
11,> 0.0393,Cc1ccc2cc(NC(=O)c3ccccc3)ccc2n1
12,0.0052,O=c1oc(-c2ccccc2Br)nc2ccccc12
13,0.0022,CC(C)CN(CC(C)C)C(=S)Nc1ccc(Cl)cc1
14,0.0065,CCOc1ncccc1C(=O)Nc1cc(S(=O)(=O)N(CC)CC)ccc1N1CCOCC1
15,0.04,CC(C)(C)NC(=O)N1CCn2cccc2C1c1ccccc1F (centres undefined)
16,> 0.0345,N#Cc1cccnc1N1CCC(C(N)=O)CC1
17,> 0.049,Cn1cccc1C1CCCN1CC(=O)Nc1ccc(C(N)=O)cc1 (centres undefined)
18,> 0.0463,O=C(C1CCC1)N1CCN(S(=O)(=O)c2ccccc2)CC1
19,0.0461,O=C(Nc1nccs1)C1CCCN1/C=C/C(=O)C(F)(F)F (centres undefined)
20,0.0017,COc1ccc(-c2ocnc2C(=O)Nc2ccc3c(c2)CCC3)cc1

row,solubility kinetic [mg/mL],Compound
1,> 0.053,CCN(C(=O)CSc1nc2ccccc2[nH]1)C1CCS(=O)(=O)C1 (centres undefined)
2,0.0272,CCn1cc(C(=O)O)c(=O)c2cnc(N3CCN(C(=S)Nc4ccccc4)CC3)nc21
3,0.0476,Cn1c(=O)n(C)c2cc(NC(=O)Cc3ccccc3[N+](=O)[O-])ccc21
4,0.0147,C=CCn1c(=S)[nH]c2sc3c(c2c1=O)CCCC3
5,> 0.0488,CCn1c(SCC(=O)N2CCCC2)nc2c(c1=O)SCC2
6,0.0527,Cc1ccc(S(=O)(=O)N2CCCCC2)cc1NC(=O)CSc1nc(N)cc(=O)[nH]1
7,0.0315,CN1CCN(C(=O)c2ccccc2[N+](=O)[O-])CC1
8,0.0024,O=C(Nc1nc(-c2ccccn2)cs1)Nc1ccc(F)cc1F
9,> 0.0456,O=C(O)c1cc(S(=O)(=O)N2CCCCC2)ccc1Cl
10,< 0.0002,c1ccc2c(Nc3nc(-c4ccncc4)nc4ccccc34)cccc2c1
11,0.0382,CN1CCN(C(=S)C(=O)Nc2ccccc2)CC1
12,0.0339,Nc1ccc(N2CCOCC2)cc1C(F)(F)F
13,> 0.0355,Clc1cccc(OCCCn2ccnc2)c1
14,> 0.0455,CC(C)c1ccccc1NC(=O)CC1(CC(=O)O)CCCC1
15,> 0.0467,CCN(C(=O)c1ccc2c(c1)OCO2)C1CCS(=O)(=O)C1 (centres undefined)
16,0.0416,O=C(NCCc1ccc(F)cc1)c1ccc2nccnc2c1
17,0.0021,COc1cccc(CNC(=O)c2ccccc2-c2ccccc2)c1
18,0.015,CC1CC(C)CN(C(=O)Nc2ccccc2F)C1 (centres undefined)
19,> 0.0461,CC(=O)O.Fc1ccc(NC(=S)Nc2cccnc2)cc1
20,> 0.044,CCC(=O)N1C(=O)C2(Nc3ccccc3N2)c2ccccc21
